Measured values as given in ChEMBL document CHEMBL1201862, “PubChem BioAssay data set” (2004).
Active and inactive are the calls of the source.

Key:
[1] = target: Glyceraldehyde-3-phosphate dehydrogenase (Homo sapiens, UniProt P04406)
[2] = target: T1, Alkaline phosphatase, tissue-nonspecific isozyme (Homo sapiens, UniProt P05186); experiment: human TNAP enzyme inhibitors, SAR follow-up, biochemical, luminescent, dose response (AID 1056)
T1 sequence (P05186 whole entry): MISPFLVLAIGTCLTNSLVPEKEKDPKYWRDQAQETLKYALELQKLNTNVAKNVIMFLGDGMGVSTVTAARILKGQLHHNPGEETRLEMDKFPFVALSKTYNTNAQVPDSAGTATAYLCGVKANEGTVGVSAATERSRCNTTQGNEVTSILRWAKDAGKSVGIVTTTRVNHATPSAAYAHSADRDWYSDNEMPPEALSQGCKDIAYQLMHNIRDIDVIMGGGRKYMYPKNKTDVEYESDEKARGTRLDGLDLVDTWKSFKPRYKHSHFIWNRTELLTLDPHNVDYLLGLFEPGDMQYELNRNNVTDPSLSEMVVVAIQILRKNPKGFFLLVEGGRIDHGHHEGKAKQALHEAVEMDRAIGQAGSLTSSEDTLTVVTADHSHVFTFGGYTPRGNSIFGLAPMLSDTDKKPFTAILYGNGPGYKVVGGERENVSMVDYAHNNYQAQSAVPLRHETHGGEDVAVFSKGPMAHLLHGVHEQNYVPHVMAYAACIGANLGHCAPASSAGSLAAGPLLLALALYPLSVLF

[3] = target: Serine/threonine-protein phosphatase PP1-alpha catalytic subunit (Homo sapiens, UniProt P62136); experiment: PP1 phosphatase inhibitors, dose response, biochemical, fluorescence (AID 2403);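 also: phosphatase turnover of OMFP into fluorescent 3-O-methylfluorescein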
Chain of Serine/threonine-protein phosphatase PP1-alpha catalytic subunit (P62136 whole entry): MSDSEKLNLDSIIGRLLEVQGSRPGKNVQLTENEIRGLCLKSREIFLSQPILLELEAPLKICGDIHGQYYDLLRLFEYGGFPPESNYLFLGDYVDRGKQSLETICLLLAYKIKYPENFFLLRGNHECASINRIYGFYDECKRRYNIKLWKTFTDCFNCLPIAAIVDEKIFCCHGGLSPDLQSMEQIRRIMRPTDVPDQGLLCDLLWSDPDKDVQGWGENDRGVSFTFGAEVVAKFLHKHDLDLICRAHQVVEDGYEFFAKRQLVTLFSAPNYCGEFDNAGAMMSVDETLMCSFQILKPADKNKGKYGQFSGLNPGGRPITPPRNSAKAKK

[4] = inhibitors of intracellular T. cruzi replication, confirmation, NIH3T3 host cells, beta-gal luminescence (AID 2044); format: functional, cell-based;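 also: intracellular parasites grown in NIH/3T3 mouse fibroblasts as host cells; luminescent beta-galactosidase reporter signal from transgenic T. cruzi replicating inside host cells; inhibitors lower the luminescence signal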
[5] = target: T2, Serine/threonine-protein phosphatase (Homo sapiens, UniProt Q9BPW0); experiment: Counterscreen for inhibitors of PP1: fluorescence-based biochemical high throughput dose response assay to identify inhibitors of Protein Phosphatase 5 (PP5). [Related pubchem assays: 2034 (Summary (PP5 inhibitors)), 1987 (PP5 inhibitors in singlate), 2235 (PP1 inhibitors in singlate)]
T2 sequence (Q9BPW0 whole entry): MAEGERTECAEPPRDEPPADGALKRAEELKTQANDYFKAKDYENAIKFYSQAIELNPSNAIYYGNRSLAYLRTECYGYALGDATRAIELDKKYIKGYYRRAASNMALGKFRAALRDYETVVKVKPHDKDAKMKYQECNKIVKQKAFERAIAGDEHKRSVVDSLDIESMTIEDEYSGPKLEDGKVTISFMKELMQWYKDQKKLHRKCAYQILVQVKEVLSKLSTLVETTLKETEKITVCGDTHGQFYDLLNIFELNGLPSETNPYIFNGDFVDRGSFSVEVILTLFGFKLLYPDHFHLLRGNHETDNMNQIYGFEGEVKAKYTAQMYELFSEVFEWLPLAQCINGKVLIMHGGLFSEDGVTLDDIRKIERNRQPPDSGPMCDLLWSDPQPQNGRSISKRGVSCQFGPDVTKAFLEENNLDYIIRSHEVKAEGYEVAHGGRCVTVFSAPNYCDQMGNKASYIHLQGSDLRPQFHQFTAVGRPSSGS

[6] = cytotoxicity toward NIH3T3 fibroblasts, dose response, counter-screen, cell-based, ATP luminescence, mouse fibroblasts (AID 2010); format: functional;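 also: cells exposed to compound for about 90 hours before reading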
Bcl-2-related protein A1 = target: T3, Bcl-2-related protein A1 (Mus musculus, UniProt Q07440); format: functional;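 also: confirmatory dose–response counterscreen on Bfl-1, used to check hits from a UBC13 polyubiquitin inhibitor campaign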
T3 sequence (Q07440 whole entry): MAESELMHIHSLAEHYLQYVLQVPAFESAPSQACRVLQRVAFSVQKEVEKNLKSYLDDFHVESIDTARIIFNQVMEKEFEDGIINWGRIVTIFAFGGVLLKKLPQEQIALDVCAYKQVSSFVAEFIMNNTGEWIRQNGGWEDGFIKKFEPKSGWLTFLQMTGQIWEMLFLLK

[7] = target: T4, Ubiquitin-conjugating enzyme E2 N (Homo sapiens, UniProt P61088); format: functional
T4 sequence (P61088 whole entry): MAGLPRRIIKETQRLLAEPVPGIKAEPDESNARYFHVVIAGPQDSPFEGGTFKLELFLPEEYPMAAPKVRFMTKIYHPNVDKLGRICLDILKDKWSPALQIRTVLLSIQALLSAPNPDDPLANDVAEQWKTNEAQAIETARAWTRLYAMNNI

[8] = target: T4, Ubiquitin-conjugating enzyme E2 N; format: functional; remark: listed apart in the source
Nonstructural protein 1 = Nonstructural protein 1 (Influenza A virus, UniProt Q194T2); format: functional, Influenza A virus (A/California/07/2009(H1N1))
Chain of Nonstructural protein 1 (Q194T2 whole entry): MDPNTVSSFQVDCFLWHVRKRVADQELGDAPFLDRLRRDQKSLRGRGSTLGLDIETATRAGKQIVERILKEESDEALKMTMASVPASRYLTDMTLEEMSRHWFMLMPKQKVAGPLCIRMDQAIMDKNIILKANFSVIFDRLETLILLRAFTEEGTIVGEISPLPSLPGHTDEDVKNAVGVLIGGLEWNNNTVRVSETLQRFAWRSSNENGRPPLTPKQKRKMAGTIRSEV

[9] = target: T5, Sentrin-specific protease 8 (Homo sapiens, UniProt Q96LD8); format: functional
T5 sequence (Q96LD8 whole entry): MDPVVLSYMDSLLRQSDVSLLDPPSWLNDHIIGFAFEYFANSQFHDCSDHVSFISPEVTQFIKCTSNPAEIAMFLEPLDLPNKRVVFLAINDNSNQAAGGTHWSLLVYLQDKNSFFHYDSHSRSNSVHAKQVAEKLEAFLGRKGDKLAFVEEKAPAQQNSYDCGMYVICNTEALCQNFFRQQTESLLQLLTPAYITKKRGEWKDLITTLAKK

[10] = target: T5, Sentrin-specific protease 8; format: functional; remark: listed apart in the source
[11] = target: T6, DNA repair protein RAD52 homolog (Homo sapiens, UniProt P43351); format: functional, biochemical
T6 sequence (P43351 whole entry): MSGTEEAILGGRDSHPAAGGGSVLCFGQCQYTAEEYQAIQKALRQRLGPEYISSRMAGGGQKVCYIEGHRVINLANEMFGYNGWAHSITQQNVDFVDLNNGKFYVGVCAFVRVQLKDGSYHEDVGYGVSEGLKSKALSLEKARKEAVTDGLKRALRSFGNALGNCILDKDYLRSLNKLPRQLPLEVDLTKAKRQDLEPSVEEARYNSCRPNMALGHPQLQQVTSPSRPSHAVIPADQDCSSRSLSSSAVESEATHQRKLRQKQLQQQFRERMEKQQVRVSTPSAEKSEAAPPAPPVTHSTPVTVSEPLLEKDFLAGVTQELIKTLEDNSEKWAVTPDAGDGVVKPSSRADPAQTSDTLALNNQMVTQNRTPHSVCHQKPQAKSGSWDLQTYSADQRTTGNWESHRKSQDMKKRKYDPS

[12] = target: Peroxisome proliferator-activated receptor gamma/Nuclear receptor coactivator 1 (Homo sapiens, UniProt P37231); experiment: (§1) TR-FRET dose response biochemical High Throughput Screening assay for agonists of the steroid receptor coactivator 1 (SRC-1) recruitment by the peroxisome proliferator-activated receptor gamma (PPAR gamma): non-selective agonists. [Related pubchem assays (depositor defined):AID1300, AID1808, AID504735, AID631]; format: protein assay
Chain of Peroxisome proliferator-activated receptor gamma/Nuclear receptor coactivator 1 (P37231 whole entry): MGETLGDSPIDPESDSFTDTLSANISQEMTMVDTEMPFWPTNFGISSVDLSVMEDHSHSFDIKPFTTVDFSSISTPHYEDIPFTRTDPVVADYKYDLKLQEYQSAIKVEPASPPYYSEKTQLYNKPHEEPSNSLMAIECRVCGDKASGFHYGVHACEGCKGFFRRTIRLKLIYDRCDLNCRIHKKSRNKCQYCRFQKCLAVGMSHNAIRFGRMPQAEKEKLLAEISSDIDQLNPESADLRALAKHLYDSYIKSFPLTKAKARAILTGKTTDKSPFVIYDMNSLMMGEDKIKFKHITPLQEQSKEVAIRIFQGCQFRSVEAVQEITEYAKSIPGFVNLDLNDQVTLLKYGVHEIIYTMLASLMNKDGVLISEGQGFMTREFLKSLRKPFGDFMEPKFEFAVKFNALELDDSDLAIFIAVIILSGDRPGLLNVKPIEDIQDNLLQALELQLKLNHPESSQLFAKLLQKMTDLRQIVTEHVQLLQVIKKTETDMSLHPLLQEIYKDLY
Chain of Peroxisome proliferator-activated receptor gamma/Nuclear receptor coactivator 1 (Q15788 whole entry, further chain): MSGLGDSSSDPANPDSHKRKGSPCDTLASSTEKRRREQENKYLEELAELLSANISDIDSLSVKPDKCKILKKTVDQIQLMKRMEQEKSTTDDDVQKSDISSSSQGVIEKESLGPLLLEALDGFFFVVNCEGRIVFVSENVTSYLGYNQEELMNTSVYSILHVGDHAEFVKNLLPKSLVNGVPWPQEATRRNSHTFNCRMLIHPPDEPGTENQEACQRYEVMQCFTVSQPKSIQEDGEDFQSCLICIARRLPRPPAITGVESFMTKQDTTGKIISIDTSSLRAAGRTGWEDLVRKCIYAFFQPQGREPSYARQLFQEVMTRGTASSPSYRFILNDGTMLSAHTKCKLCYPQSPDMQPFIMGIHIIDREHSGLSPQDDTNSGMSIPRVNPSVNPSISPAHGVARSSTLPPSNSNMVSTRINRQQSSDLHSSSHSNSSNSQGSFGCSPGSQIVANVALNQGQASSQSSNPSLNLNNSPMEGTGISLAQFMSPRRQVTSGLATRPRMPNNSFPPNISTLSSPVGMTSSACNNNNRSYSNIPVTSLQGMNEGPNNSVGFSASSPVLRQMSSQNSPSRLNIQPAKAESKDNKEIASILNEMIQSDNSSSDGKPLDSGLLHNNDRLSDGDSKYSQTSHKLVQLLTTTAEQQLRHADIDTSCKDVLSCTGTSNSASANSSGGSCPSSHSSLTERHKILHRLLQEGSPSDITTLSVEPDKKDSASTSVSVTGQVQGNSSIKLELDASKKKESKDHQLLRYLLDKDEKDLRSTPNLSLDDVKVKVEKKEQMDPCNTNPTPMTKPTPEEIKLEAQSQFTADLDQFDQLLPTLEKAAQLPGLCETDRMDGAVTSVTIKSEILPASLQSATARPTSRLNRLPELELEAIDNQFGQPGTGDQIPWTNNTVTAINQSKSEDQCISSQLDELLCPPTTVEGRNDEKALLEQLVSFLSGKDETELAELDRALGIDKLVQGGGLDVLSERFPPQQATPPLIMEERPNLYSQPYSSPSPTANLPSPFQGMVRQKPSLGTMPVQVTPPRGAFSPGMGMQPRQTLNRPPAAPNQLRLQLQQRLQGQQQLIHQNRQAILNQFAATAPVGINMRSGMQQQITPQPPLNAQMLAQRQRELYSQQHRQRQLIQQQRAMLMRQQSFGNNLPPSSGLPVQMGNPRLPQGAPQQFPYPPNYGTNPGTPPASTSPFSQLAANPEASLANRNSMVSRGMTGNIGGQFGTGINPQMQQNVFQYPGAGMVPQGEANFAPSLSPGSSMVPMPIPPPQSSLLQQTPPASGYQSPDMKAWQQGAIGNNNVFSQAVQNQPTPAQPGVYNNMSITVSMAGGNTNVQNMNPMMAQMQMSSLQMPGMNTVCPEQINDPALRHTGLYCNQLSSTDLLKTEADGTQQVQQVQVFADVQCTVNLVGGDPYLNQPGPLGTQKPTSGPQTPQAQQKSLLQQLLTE

[13] = target: Peroxisome proliferator-activated receptor gamma/Nuclear receptor coactivator 3 (Homo sapiens, UniProt P37231); experiment: as §1, with “3 (SRC-3)” for “1 (SRC-1)”, “assays: 1301 (Confirmation screen.), 1048 (Primary screen.)]” for “assays (depositor defined):AID1300, AID1808, AID504735, AID631]”; format: functional
Chain of Peroxisome proliferator-activated receptor gamma/Nuclear receptor coactivator 3 (P37231 whole entry): as the sequence (P37231 whole entry) above
Chain of Peroxisome proliferator-activated receptor gamma/Nuclear receptor coactivator 3 (Q9Y6Q9 whole entry, further chain): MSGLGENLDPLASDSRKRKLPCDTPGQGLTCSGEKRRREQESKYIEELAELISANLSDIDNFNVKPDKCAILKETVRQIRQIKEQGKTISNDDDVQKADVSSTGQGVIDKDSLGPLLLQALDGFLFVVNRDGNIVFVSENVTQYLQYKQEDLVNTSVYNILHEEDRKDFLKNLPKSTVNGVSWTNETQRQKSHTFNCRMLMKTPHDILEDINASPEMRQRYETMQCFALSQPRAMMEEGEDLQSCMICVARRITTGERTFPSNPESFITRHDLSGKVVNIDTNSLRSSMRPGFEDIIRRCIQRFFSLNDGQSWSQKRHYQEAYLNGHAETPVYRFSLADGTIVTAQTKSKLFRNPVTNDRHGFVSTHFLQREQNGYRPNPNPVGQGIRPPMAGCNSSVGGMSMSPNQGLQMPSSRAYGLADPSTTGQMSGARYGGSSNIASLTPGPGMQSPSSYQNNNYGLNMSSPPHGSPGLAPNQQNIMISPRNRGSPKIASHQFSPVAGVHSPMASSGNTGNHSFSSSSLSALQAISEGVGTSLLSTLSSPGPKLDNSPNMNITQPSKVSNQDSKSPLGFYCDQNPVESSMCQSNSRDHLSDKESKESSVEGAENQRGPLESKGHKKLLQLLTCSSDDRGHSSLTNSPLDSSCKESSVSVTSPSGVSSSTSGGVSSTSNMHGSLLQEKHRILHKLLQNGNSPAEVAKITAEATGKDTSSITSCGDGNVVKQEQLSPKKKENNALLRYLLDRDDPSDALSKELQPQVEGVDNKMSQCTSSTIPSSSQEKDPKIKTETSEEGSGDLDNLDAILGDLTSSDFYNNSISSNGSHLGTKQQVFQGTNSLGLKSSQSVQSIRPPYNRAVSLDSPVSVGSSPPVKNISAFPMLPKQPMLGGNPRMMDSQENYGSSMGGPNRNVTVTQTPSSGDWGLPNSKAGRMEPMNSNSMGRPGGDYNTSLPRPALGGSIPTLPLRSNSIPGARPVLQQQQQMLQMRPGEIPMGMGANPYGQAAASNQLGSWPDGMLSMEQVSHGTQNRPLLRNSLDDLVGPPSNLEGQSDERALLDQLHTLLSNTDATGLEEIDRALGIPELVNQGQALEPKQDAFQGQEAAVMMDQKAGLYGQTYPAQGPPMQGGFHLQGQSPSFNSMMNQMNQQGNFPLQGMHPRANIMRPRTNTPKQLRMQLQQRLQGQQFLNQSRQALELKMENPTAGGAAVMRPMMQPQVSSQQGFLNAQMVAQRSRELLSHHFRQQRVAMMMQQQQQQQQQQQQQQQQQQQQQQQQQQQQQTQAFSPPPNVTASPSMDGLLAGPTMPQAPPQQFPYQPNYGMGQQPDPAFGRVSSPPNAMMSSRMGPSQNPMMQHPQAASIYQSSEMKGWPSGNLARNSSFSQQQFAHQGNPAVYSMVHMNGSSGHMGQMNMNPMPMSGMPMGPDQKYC

[14] = target: Peroxisome proliferator-activated receptor gamma/Nuclear receptor coactivator 2 (Homo sapiens, UniProt P37231); experiment: TR-FRET dose response biochemical High Throughput Screening assay for agonists of the steroid receptor coactivator 2 (SRC-2) recruitment by the peroxisome proliferator-activated receptor gamma (PPAR gamma): non-selective agonists. [Related pubchem assays: 1297, 1032 ]; format: functional
Coagulation factor XII = target: T7, Coagulation factor XII (Homo sapiens, UniProt P00748); format: functional;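 also: activated factor XIIa alpha cleaving a fluorogenic AMC peptide substrate; inhibitor potency from loss of enzyme activity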
T7 sequence (P00748 whole entry): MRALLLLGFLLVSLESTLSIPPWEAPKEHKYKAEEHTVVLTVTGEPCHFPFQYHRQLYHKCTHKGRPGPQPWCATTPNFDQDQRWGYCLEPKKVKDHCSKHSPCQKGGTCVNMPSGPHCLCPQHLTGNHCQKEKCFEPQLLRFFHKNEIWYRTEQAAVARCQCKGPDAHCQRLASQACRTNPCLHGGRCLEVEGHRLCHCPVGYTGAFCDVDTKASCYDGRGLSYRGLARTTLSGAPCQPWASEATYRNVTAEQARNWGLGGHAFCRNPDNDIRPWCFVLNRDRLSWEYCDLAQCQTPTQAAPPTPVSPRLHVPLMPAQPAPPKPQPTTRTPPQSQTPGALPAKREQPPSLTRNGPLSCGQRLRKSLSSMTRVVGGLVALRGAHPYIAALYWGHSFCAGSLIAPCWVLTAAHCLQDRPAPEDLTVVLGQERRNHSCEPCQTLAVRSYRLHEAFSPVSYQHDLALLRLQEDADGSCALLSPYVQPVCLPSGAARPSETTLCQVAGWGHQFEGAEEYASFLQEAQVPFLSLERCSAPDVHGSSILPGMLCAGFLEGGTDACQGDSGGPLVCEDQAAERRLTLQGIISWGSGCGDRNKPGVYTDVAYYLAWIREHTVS

[15] = cytotoxicity in HEK-293T cells, dose response, cytotoxicity control for BCR NF-kB inhibitor project, luminescence, B-cell screen hits (AID 489021); format: functional, cell-based;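 also: HEK-293T cells carrying an NF-kB luciferase reporter; cells exposed to compound for about 14 hours before viability readout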
Protein Rev = target: T8, Protein Rev (Human immunodeficiency virus type 1 group M subtype B (isolate HXB2)(HIV-1), UniProt P04618); experiment: inhibitors of Rev binding to RRE RNA, dose response, biochemical, fluorescence polarization, HIV-1 (AID 434976); set-up: species or system Human immunodeficiency virus 1
T8 sequence (P04618 whole entry): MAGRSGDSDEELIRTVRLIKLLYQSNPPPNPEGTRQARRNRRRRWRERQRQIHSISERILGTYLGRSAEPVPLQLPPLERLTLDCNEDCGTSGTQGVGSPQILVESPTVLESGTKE

[16] = target: T9, Female germline-specific tumor suppressor gld-1 (Caenorhabditis elegans, UniProt Q17339); experiment: inhibitors of GLD-1 binding to TGE RNA, dose response, biochemical, fluorescence polarization, C. elegans (AID 2802);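 also: fluorescence polarization of labeled TGE RNA bound by purified gld-1 protein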
T9 sequence (Q17339 whole entry): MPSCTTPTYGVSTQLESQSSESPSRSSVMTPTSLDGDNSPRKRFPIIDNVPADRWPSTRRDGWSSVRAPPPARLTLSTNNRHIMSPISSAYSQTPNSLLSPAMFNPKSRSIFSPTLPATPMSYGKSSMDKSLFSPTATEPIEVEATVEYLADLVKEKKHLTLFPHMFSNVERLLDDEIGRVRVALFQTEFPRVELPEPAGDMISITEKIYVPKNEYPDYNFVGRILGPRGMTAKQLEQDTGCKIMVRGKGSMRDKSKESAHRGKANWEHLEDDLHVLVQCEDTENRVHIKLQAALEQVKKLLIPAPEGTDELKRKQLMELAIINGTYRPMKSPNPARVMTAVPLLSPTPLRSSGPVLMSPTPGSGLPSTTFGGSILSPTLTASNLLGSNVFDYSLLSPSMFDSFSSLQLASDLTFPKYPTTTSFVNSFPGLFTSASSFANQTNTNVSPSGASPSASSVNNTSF

Genome polyprotein = Genome polyprotein (dengue virus type 2, UniProt P29990); experiment: Dengue-2 NS5 methyltransferase inhibitors, primary screen, biochemical, confirmation dose response (AID 588689); format: functional

Chain of Glyceraldehyde-3-phosphate dehydrogenase (P04406 whole entry): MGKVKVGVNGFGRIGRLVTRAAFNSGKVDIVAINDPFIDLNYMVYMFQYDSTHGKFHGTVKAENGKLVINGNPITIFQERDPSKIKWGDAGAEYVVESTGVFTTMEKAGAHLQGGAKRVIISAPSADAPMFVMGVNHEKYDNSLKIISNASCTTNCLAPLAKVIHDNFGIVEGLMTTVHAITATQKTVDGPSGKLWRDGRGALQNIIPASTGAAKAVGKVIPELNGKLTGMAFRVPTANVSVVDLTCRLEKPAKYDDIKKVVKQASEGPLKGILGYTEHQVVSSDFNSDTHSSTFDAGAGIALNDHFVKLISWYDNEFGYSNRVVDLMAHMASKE

With `O=S(=O)(Nc1cnc2ccccc2c1)c1ccccc1` the IC50 [1] was > 100 µM (not active) and the IC50 [2] was > 100 µM (inactive).
In the case of `CC(=O)Nc1nnc(S(C)(=O)=O)[nH]1`, the IC50 [1] is reported as > 100 µM (not active) and the IC50 [2] is reported as > 100 µM (inactive).
With `CCOC(=O)c1cnc(-n2nc(C)cc2C)nc1NCCc1ccccc1` the IC50 [3] was 6.96 µM (active), the EC50 [4] was 2.04 µM (active) and the IC50 [5] was > 67 µM (not active). The EC50 [6] was > 30 µM (not active).
For `CN1CCN(c2cc(-c3cc(O)c4ncccc4c3)ccn2)CC1`, the IC50 (Bcl-2-related protein A1) was 12.5 µM (active), the IC50 [7] was 15.6 µM (active) and the IC50 [8] was 10.8 µM (active). For the same molecule, the IC50 (Nonstructural protein 1) was 9.85 µM (active), the IC50 [9] was 5.17 µM (active) and the IC50 [10] was 6.88 µM (active). For the same molecule, the AC50 [11] was 1.58 µM (active).
In the case of `CCCCc1nc2sc3c(SCC(=O)NCc4ccco4)ncnc3c2c2c1CCC2`, the EC50 [12] is reported as 78.6 µM (inactive), the EC50 [13] is reported as > 79.4 µM (not active) and the EC50 [14] is reported as 58.8 µM (not active).
For `CCOc1cc(CO)ccc1OCC(=O)N1CCCCC1`, the IC50 (Coagulation factor XII) was > 50 µM (inactive).
For `COc1cnc(-c2ccccn2)nc1Oc1cccc(Cl)c1`, the IC50 [3] was 8.46 µM (active) and the IC50 [5] was > 67 µM (not active).
In the case of `Cc1cc(N2C(=O)C(O)=C(C(=O)c3ccc(Cl)cc3)C2c2cccc(Br)c2)no1` (centres undefined), the EC50 [12] is reported as > 79.4 µM (inactive), the EC50 [13] is reported as > 79.4 µM (not active) and the EC50 [14] is reported as 113 µM (not active).
With `COc1ccccc1CC(=O)NN1C(=O)c2ccccc2C1=O` the IC50 (Coagulation factor XII) was > 50 µM (inactive).
With `O=C1c2ccccc2C(=O)N1c1nnc(Cc2ccc(F)cc2)[nH]1` the IC50 [1] was > 100 µM (not active) and the IC50 [2] was 4.66 µM (active).
In the case of `Cn1c(=O)cc(SCC(=O)N2CCCC2)c2cc(Cl)ccc21`, the EC50 [12] is reported as > 79.4 µM (inactive), the EC50 [13] is reported as > 79.4 µM (not active) and the EC50 [14] is reported as > 79.4 µM (not active). For the same molecule, the IC50 [15] was > 80 µM (inactive).
With `Cc1ccc(C(=O)N/N=C/c2ccc(-c3ccc(Br)cc3[N+](=O)[O-])o2)o1` the IC50 (Protein Rev) was > 25.1 µM (not active), the IC50 [16] was 10.4 µM (inactive) and the IC50 (Genome polyprotein) was > 100 µM (active).
